This is an account of results in patent US12715848B2, “Process for the diastereomerically pure preparation of DL/LD-methionylmethionine” (Evonik Operations GmbH, priority 2020, dated 2026).

Values after ≈ are worked out from the molar mass of the structure shown. Residues, ends and D or L forms follow the SMILES beside them.

Series [1] can be described thus: Water solubility at room temperature.
The next series can be described thus: Dust content. The format is physicochemical. To be noted: fraction <63 μm.
Series [2] can be described thus: Determination of bulk density (1 L measuring cylinder). Format: physicochemical. On the procedure: The bulk density in kg/L was determined using a 1 L measuring cylinder, which was filled with the bulk material precisely to the 1000 ml mark, and was measured by weighing the weight of the contents so as to result in the bulk density directly.
The nature of the next series: Minimum ignition energy. Format: physicochemical.

In series [1], `CSCCC(N)C(=O)NC(CCSC)C(=O)O` (stereo not drawn) [DDLL-Met-Met, DD/LL-methionylmethionine] (H-Met-Met-OH; configuration not given here) showed a water solubility of 21.0 mg/mL (≈ 74.9 mM).
For `CSCCC(N)C(=O)NC(CCSC)C(=O)O` (stereo not drawn) [DLLD-Met-Met, DL/LD-methionylmethionine] (H-Met-Met-OH; configuration not given here), in the series “Dust content”, the dust content entry is recorded as “approx. 10%”. In series [2], this compound had a bulk density above 600 kg/m^3. For the same compound, the figures for the minimum ignition energy result in the series “Minimum ignition energy” (100° C.) and in “Minimum ignition energy” (room temperature) were “above 3 mJ” and “above 10 mJ”, respectively.
